Measurements from patent publication US11696914B1 (priority 2019, dated 2023).
Several values for one entry are separate records, joined by “and”; a condition that tells them apart may be missing. Equal values may be shown once. Read-outs that look alike come from different tables or passages of the source.

What was measured:
HeLa cells [1] = system: HeLa cells
[2] = mouse, microsomes
[3] = guinea pig, microsomes
[4] = microsomes; for t1/2: monkey
[5] = human, microsomes
[6] = mouse, microsomes, 1 h, pH 7.4
[7] = guinea pig, pH 7.4
[8] = human, microsomes, 1 h
in vitro [9] = details: mouse, microsomes
in vitro [10] = details: guinea pig, microsomes
in vitro [11] = details: microsomes
in vitro [12] = details: human, microsomes
Sudan virus = details: guinea pig, in vivo; cited from earlier work
SARS-CoV-2 = assay: microbe, parasite or virus in culture; format: cell-based
[13] = system: Vesicular Stomatitis Virus (VSV) pseudotyped with EBOV glycoprotein; assay: microbe, parasite or virus in culture; format: cell-based, Ebola virus; details: HeLa, read-out: IC50, inhibition of EBOV-VSV pseudovirus entry
[14] = system: Marburg virus (MARV), Musoke strain; assay: organism not typed; format: cell-based; details: HeLa; n=6; read-out: IC50 ± SEM versus MARV Musoke strain
[15] = system: Ebola virus/H.sapiens-tc/COD/1995/Kikwit-9510621 (EBOV/Kik); assay: microbe, parasite or virus in culture; format: cell-based; details: Zaire ebolavirus, HeLa
[16] = system: Ebola virus/H.sapiens-tc/GIN/2014/Makona-005 (EBOV/Mak); assay: microbe, parasite or virus in culture; format: cell-based; details: Zaire ebolavirus, HeLa
[17] = system: Ebola virus/H.sapiens-tc/COD/1976/Yambuku-Mayinga (EBOV/May); assay: microbe, parasite or virus in culture; format: cell-based; details: Zaire ebolavirus, HeLa
[18] = system: Marburg virus/H.sapiens-tc/AGO/2005/Ang-1379v (MARV/Ang); assay: organism not typed; format: cell-based; details: HeLa
[19] = system: Marburg virus/H.sapiens-tc/KEN/1980/Mt. Elgon-Musoke (MARV/Mus); assay: organism not typed; format: cell-based; details: HeLa
Chikungunya virus = assay: microbe, parasite or virus in culture; format: cell-based; details: Vero 76
Ebola virus = assay: microbe, parasite or virus in culture; format: cell-based; details: Zaire ebolavirus, Vero 76
Influenza A virus H1N1 = assay: microbe, parasite or virus in culture; format: cell-based; details: H1N1, MDCK
MERS coronavirus = assay: microbe, parasite or virus in culture; format: cell-based; details: Middle East respiratory syndrome-related coronavirus, Vero 76
Poliovirus 3 = assay: microbe, parasite or virus in culture; format: cell-based; details: Enterovirus C, Vero 76
Tacaribe virus = assay: microbe, parasite or virus in culture; format: cell-based; details: Mammarenavirus tacaribeense, Vero 76
[20] = system: Venezuelian equine encephalitis virus; assay: microbe, parasite or virus in culture; format: cell-based; details: Venezuelan equine encephalitis virus, Vero 76
Yellow Fever virus = assay: microbe, parasite or virus in culture; format: cell-based; details: Vero 76
EBOV Zaire = assay: microbe, parasite or virus in culture; format: cell-based, Ebola virus; details: Zaire ebolavirus, HeLa
[21] = system: murine hepatitis virus (MHV); assay: microbe, parasite or virus in culture; format: cell-based; details: Murine coronavirus, read-out: IC50 versus murine hepatitis virus (MHV)
SARS-CoV-2 Spike RBD = SARS-CoV-2 Spike RBD (Severe acute respiratory syndrome coronavirus 2, UniProt P0DTC2); format: binding
HeLa cells [22] = details: human
Hartley guinea pigs = details: guinea pig, in vivo
[23] = Hartley, guinea pig, in vivo, po, 30 mg/kg
Vero 76 = details: African green monkey
in vivo [24] = details: both, Hartley, guinea pig, po
in vivo [25] = details: Hartley, guinea pig, po; for AUC(0-t): AUClast Mean; for Cmax: Cmax Mean; for half-life: T1/2
in vitro [26] = details: dog
in vitro [27] = details: human
EBOV = details: human, in vivo; cited from earlier work
[28] = Severe acute respiratory syndrome coronavirus 2, A549-ACE2, read-out: IC50 against SARS-CoV-2

In the case of C[C@H]1[C@H](OC(=O)CCC(=O)O)O[C@@H]2O[C@@]3(C)CC[C@H]4[C@H](C)CC[C@@H]1[C@@]24OO3 [Artesunate], the “effect on toxicity of pyronaridine in the checkboard assay” value (HeLa cells [1]) is reported as “ameliorates the toxicity of pyronaridine”.

With CCN(CC)CCCC(C)Nc1ccnc2cc(Cl)ccc12 (stereo not drawn) [Chloroquine] the Clint [2] was 29.3, the “Dextromethorphan: compound, t1/2 normalized to dextromethorphan control” value [2] was 2.7 and the t1/2 [2] was 47.3 min. The Clint [3] was 10.5, the “Dextromethorphan: compound, t1/2 normalized to dextromethorphan control” value [3] was 42.1 and the t1/2 [3] was 132.6 min. For the same molecule, the Clint [4] was 13.0, the “Dextromethorphan: compound, t1/2 normalized to dextromethorphan control” value [4] was 19.1 and the t1/2 [4] was 106.8 min. For the same molecule, the Clint [5] was 6.9, the “Dextromethorphan: compound, t1/2 normalized to dextromethorphan control” value [5] was 10.3 and the t1/2 [5] was 201.4 min. The “Relative Peak Area/Abundance MLM” value [6] was 42.5%, the “Relative Peak Area/Abundance GPLM” value [7] was 43.3% and the “Relative Peak Area/Abundance HLM” value ([8]; pH 7.4) was 56.7%.

For COc1ccc2c(c1)[C@]13CCCC[C@@H]1[C@H](C2)N(C)CC3 [Dextromethorphan], the half-life (in vitro [9]; Dextromethorphan t1/2) was 16.2 min, the half-life (in vitro [9]; t1/2 of CYP probe controls) was 13.2 min and the half-life (in vitro [10]; Dextromethorphan t1/2) was 3.2 min. It also gave a half-life (in vitro [10]; t1/2 of CYP probe controls) of 2.9 min, a half-life (in vitro [11]; monkey) of 6.69 min and a half-life (in vitro [11]; non-human primate) of 5.7 min. It also gave a half-life (in vitro [12]; Dextromethorphan t1/2) of 19.7 min and a half-life (in vitro [12]; t1/2 of CYP probe controls) of 14.8 min.

For O=C(O)Cc1ccccc1Nc1c(Cl)cccc1Cl [Diclofenac], the “t1/2 of CYP probe controls” value [2] was 39.6 min and the half-life (in vitro [11]; monkey) was 43.1 min.

For NC(=O)c1nc(F)c[nH]c1=O [Favipiravir], the “survival rates in Sudan virus-infected guinea pigs” value (Sudan virus) is listed as 83-100%.

With COc1ccc2nc3cc(Cl)ccc3c(N)c2n1 [M11] the “Relative Peak Area/Abundance HLM” value [8] was 0.2%.

In the case of Cc1ncc2n1-c1ccc(Cl)cc1C(c1ccccc1F)=NC2 [Midazolam], the half-life (in vitro [9]; t1/2 of CYP probe controls) is reported as 1.68 min, the half-life (in vitro [10]; t1/2 of CYP probe controls) is reported as 3.75 min and the half-life (in vitro [11]; monkey) is reported as 4.3 min. The half-life (in vitro [12]; t1/2 of CYP probe controls) was 2.35 min.

In the case of COc1ccc2[nH]c([S+]([O-])Cc3ncc(C)c(OC)c3C)nc2c1 (stereo not drawn) [Omeprazole], the half-life (in vitro [10]; t1/2 of CYP probe controls) is reported as 34 min, the half-life (in vitro [11]; monkey) is reported as 25.5 min and the half-life (in vitro [12]; t1/2 of CYP probe controls) is reported as 23.5 min.

CCC(CC)COC(=O)[C@H](C)N[P@](=O)(OC[C@H]1O[C@@](C#N)(c2ccc3c(N)ncnn23)[C@H](O)[C@@H]1O)Oc1ccccc1 [Remdesivir] gave an IC50 (SARS-CoV-2; [28]) of roughly 0.147 µM.

CCN(CC)CCOc1ccc2c(c1)C(=O)c1cc(OCCN(CC)CC)ccc1-2 [Tilorone] gave an IC50 [13] of 5 µM, an IC50 [14] of 1.94 ± 0.304 µM and an IC50 [15] of 1.48 ± 0.47 µM. It also gave an IC50 [16] of 1.14 ± 0.38 µM, an IC50 [17] of 1.21 ± 1.07 µM and an IC50 [18] of 4.51 ± 1.93 µM. The IC50 [19] was 2.05 ± 0.28 µM, the EC50 (Chikungunya virus) was 4.2 µM and the EC50 (Ebola virus) was greater than 11 µM. The EC50 (Influenza A virus H1N1) was greater than 19 µM, the EC50 (MERS coronavirus) was 3.7 µM and the EC50 (Poliovirus 3) was greater than 25 µM. The EC50 (Tacaribe virus) was 29 µM, the EC50 [20] was 18 µM and the EC50 (Yellow Fever virus) was greater than 12 µM. For the same molecule, the EC50 (EBOV Zaire) was 0.23 µM, the IC50 (SARS-CoV-2; [28]) was less than 0.2 µM and the IC50 (SARS-CoV-2; read-out: IC50 against SARS-CoV-2) was ~0.18 µM and 0.18 µM. The IC50 [21] was roughly 20 µM, the Kd (SARS-CoV-2 Spike RBD; pH5.2) was 0.631 µM and the Kd (SARS-CoV-2 Spike RBD; pH 7.4) was 0.339 µM. The CC50 (HeLa cells [22]) was 18 ± 3.04 µM, the Clint [2] was 13.5 and the “Dextromethorphan: compound, t1/2 normalized to dextromethorphan control” value [2] was 6.3. The t1/2 [2] was 102.7 min, the Clint [3] was 113.7 and the “Dextromethorphan: compound, t1/2 normalized to dextromethorphan control” value [3] was 3.9. The t1/2 [3] was 12.2 min, the Clint [4] was 14.7 and the “Dextromethorphan: compound, t1/2 normalized to dextromethorphan control” value [4] was 16.9. For the same molecule, the t1/2 [4] was 94.3 min, the Clint [5] was 10.9 and the “Dextromethorphan: compound, t1/2 normalized to dextromethorphan control” value [5] was 6.5. For the same molecule, the t1/2 [5] was 127.1 min, the “Relative Peak Area/Abundance MLM” value [6] was 62.9% and the “Relative Peak Area/Abundance GPLM” value [7] was 35.5%. For the same molecule, the “Relative Peak Area/Abundance HLM” value ([8]; pH 7.4) was 54.9%, the tolerability (Hartley guinea pigs) was “relatively well tolerated” and the mortality and morbidity (Hartley guinea pigs; po, 100 mg/kg) was “significant mortality and morbidity”. The “AUClast Mean” value ([23]; female) was 1340 ng·h/mL, the “AUClast Mean” value ([23]; male) was 1230 ng·h/mL and the T1/2 ([23]; male) was 798 min. The CC50 (Vero 76) was 32 µM, the MTD (in vivo [24]) was 30 mg/kg and the AUC(0-t) (in vivo [25]; female, 30 mg/kg) was 1140 ng·h/mL. The Cmax (in vivo [25]; female, 30 mg/kg) was 246 ng/mL, the half-life (in vivo [25]; female, 30 mg/kg) was 858 min and the Tmax (in vivo [25]; female, 30 mg/kg) was 30 min. It also gave an AUC(0-t) (in vivo [25]; female, 100 mg/kg) of 3330 ng·h/mL, a Cmax (in vivo [25]; female, 100 mg/kg) of 384 ng/mL and a half-life (in vivo [25]; female, 100 mg/kg) of 1040 min. For the same molecule, the Tmax (in vivo [25]; female, 100 mg/kg) was 60 min, the AUC(0-t) (in vivo [25]; female, 200 mg/kg) was 4680 ng·h/mL and the Cmax (in vivo [25]; female, 200 mg/kg) was 448 ng/mL. The Tmax (in vivo [25]; female, 200 mg/kg) was 60 min, the AUC(0-t) (in vivo [25]; male, 30 mg/kg) was 1020 ng·h/mL and the Cmax (in vivo [25]; male, 30 mg/kg) was 148 ng/mL. It also gave a half-life (in vivo [25]; male, 30 mg/kg) of 936 min, a Tmax (in vivo [25]; male, 30 mg/kg) of 60 min and an AUC(0-t) (in vivo [25]; male, 100 mg/kg) of 2690 ng·h/mL. It also gave a Cmax (in vivo [25]; male, 100 mg/kg) of 225 ng/mL, a Tmax (in vivo [25]; male, 100 mg/kg) of 60 min and an AUC(0-t) (in vivo [25]; male, 200 mg/kg) of 5750 ng·h/mL. The Cmax (in vivo [25]; male, 200 mg/kg) was 355 ng/mL, the half-life (in vivo [25]; male, 200 mg/kg) was 1740 min and the Tmax (in vivo [25]; male, 200 mg/kg) was 60 min. For the same molecule, the CC50 (in vitro [26]) was 19 µM and the CC50 (in vitro [27]) was 6.5 µM.

B1: mAb114 (antibody, chains of the INN, looked up, V domains shown)
VH: EVQLVESGGGLIQPGGSLRLSCAASGFALRMYDMHWVRQTIDKRLEWVSAVGPSGDTTYADSVKGRFAVSRENAKNSLSLQMNSLTAGDTAIYYCVRSDRGVAGLFDSWGQGILVTVSS
VL: DIQMTQSPSSLSASVGDRITITCRASQAFDNYVAWYQQRPGKVPKLLISAASALHAGVPSRFSGSGSGTHFTLTISSLQPEDVATYYCQNYNSAPLTFGGGTKVEIK
In the case of B1, the “overall survival rate in EBOV patients” value (EBOV) is listed as 66%.
